Assay results: patent US20220249539A1, “BOLAAMPHIPHILIC COMPOUNDS, COMPOSITIONS AND USES THEREOF” (priority 2015, published 2022)

What was measured:
[1] = system: patients' gliomas implanted in mice; conditions: cited from earlier work
GBM = conditions: very little gets through the BBB and reaches the tumor; cited from earlier work
[2] = Fluorescence in mouse cerebral cortex after i.v. injection of albumin-FITC; type: in vivo; conditions: FIGS. 5A, 5B
Excerpt: In addition to the peptide leu-enkephalin, and the small molecules: CF, uranyl acetate, kyotorphin and sucrose, the inventors have also successfully encapsulated in these vesicles the proteins albumin and trypsinogen and the polysaccharide Dextran-FITC (MW 9000).

| Compound | potency rank against patients' gliomas implanted in mice ([1]; out of 40 drugs tested) | effectiveness against tumors tested ([1]; patients' gliomas implanted in mice) | outcome of attempts to treat GBM patients (GBM) | delivery of albumin-FITC to the brain (brain accumulation) [2] |
| --- | --- | --- | --- | --- |
| CCc1c2c(nc3ccc(OC(=O)N4CCC(N5CCCCC5)CC4)cc13)-c1cc3c(c(=O)n1C2)COC(=O)[C@]3(O)CC [CPT-11, (S)-4,11-diethyl-3,4,12,14-tetrahydro-4-hydroxy-3,14-dioxo1H-pyrano[3′,4′:6,7]-indolizino[1,2-b]quinolin-9-yl-[1,4′bipiperidine]-1′-carboxylate] | the most potent chemotherapeutic agent | effective against every tumor tested | unsuccessful | – |
| un-encapsulated albumin-FITC: albumin-FITC (non-encapsulated) | – | – | – | little, if any, brain accumulation |
